This passage reports IC50 results from US20230210853A1 (Halia Therapeutics, Inc., priority 2020, published 2023).

Some results are limits rather than exact numbers.

The first assay deals with T1, full-length recombinant human NEK7 (Homo sapiens, UniProt Q8TDX7).
T1 construct: full-length recombinant human NEK7; GST (N); purchased SignalChem N09-10G; host or cells: Sf9 insect cells (baculovirus)
T1 sequence (Q8TDX7 whole entry): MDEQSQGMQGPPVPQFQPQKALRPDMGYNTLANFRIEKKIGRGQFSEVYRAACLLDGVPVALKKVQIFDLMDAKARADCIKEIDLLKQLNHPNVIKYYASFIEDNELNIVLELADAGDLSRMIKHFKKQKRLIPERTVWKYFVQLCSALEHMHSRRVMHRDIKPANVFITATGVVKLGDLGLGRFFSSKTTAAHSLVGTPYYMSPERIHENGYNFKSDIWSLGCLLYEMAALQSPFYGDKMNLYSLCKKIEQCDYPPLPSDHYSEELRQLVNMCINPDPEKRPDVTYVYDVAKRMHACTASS
The assay is described as follows: NEK7 enzymatic assay ([33P]-ATP, casein substrate). The class given is biochemical. The note with it: Table 2e; recombinant human NEK7, casein substrate. A digest of the protocol: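 GST-tagged enzyme, baculovirus-expressed in Sf9 cells, was mixed with casein in 20 mM Hepes pH 7.5, 10 mM MgCl2, 1 mM EGTA, 0.02% Brij35, 2 mM DTT, 1% DMSO. Compounds (3-fold series, 10 μM–0.5 nM) were preincubated 20 min at RT, then [33P]-ATP was added for 2 h at RT. P81 filter-bound radioactivity was expressed as % of vehicle activity and fitted to IC50.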
As to `CN1CCCN(Cc2ccc(NC(=O)Nc3ccc(Oc4ccnc5[nH]cc(Cl)c45)cc3F)cc2C(F)(F)F)CC1` [Ie-17, 1-(4-((3-chloro-1H-pyrrolo[2,3-b]pyridin-4-yl)oxy)-2-fluorophenyl)-3-(4-((4-methyl-1,4-diazepan-1-yl)methyl)-3-(trifluoromethyl)phenyl)urea], the IC50 was greater than 1500 nM. On the same count and under the same terms, with `CN1C[C@@H]2CN(Cc3ccc(NC(=O)Nc4ccc(Oc5ccnc6[nH]cc(Cl)c56)cc4F)cc3C(F)(F)F)C[C@@H]2C1` [Ie-18, 1-(4-((3-chloro-1H-pyrrolo[2,3-b]pyridin-4-yl)oxy)-2-fluorophenyl)-3-(4-(((3aR,6aS)-5-methylhexahydropyrrolo[3,4-c]pyrrol-2(1H)-yl)methyl)-3-(trifluoromethyl)phenyl)urea] the figure was greater than 1500 nM; with `CN1CCC(Cc2ccc(NC(=O)Nc3ccc(Oc4ccnc5[nH]cc(Cl)c45)cc3F)cc2C(F)(F)F)CC1` [Ie-19, 1-(4-((3-chloro-1H-pyrrolo[2,3-H]pyridin-4-yl)oxy)-2-fluorophenyl)-3-(4-((1-methylpiperidin-4-yl)methyl)-3-(trifluoromethyl)phenyl)urea], 501 to 1500 nM.

As to `CN(C)C1CCN(Cc2ccc(NC(=O)Nc3ccc(Oc4ccnc5[nH]cc(Cl)c45)cc3F)cc2C(F)(F)F)C1` (centres unmarked) [Ie-21, 1-(4-((3-chloro-1H-pyrrolo[2,3-b]pyridin-4-yl)oxy)-2-fluorophenyl)-3-(4-((3-(dimethylamino)pyrrolidin-1-yl)methyl)-3-(trifluoromethyl)phenyl)urea], the IC50 is greater than 1500 nM. For `CN1CCN(Cc2ccc(NC(=O)Nc3ccc(Oc4ccnc5[nH]cc(Cl)c45)cc3F)cc2C(F)F)CC1` [Ie-22, 1-(4-((3-chloro-1H-pyrrolo[2,3-b]pyridin-4-yl)oxy)-2-fluorophenyl)-3-(3-(difluoromethyl)-4-((4-methylpiperazin-1-yl)methyl)phenyl)urea], the IC50 was in the range of 501 to 1500 nM. On to `CCN1CCN(Cc2ccc(NC(=O)Nc3ccc(Oc4ccnc5[nH]cc(Cl)c45)cc3F)cc2C(F)F)CC1` [Ie-23, 1-(4-((3-chloro-1-pyrrolo[2,3-b]pyridin-4-yl)oxy)-2-fluorophenyl)-3-(3-(difluoromethyl)-4-((4-ethylpiperazin-1-yl)methyl)phenyl)urea], for which the IC50 was 501 to 1500 nM.

Regarding `Cc1cn(-c2ccc(NC(=O)Nc3ccc(Oc4ccnc5[nH]cc(Cl)c45)cc3F)cc2C(F)(F)F)cn1` [Ie-24, 1-(4-((3-chloro-1H-pyrrolo[2,3-b]pyridin-4-yl)oxy)-2-fluorophenyl)-3-(4-(4-methyl-1H-imidazol-1-yl)-3-(trifluoromethyl)phenyl)urea], the IC50 was in the range of 301 to 500 nM. On the same count and under the same terms, with `CN1CCN(Cc2ccc(NC(=O)Nc3ccc(Oc4ccnc5[nH]c(Cl)c(Cl)c45)cc3F)cc2C(F)(F)F)CC1` [Ie-25, 1-(4-((2,3-dichloro-1H-pyrrolo[2,3-b]pyridin-4-yl)oxy)-2-fluorophenyl)-3-(4-((4-methylpiperazin-1-yl)methyl)-3-(trifluoromethyl)phenyl)urea] the figure was 301 to 500 nM; with `Cc1cc(Oc2ccnc3[nH]cc(Cl)c23)ccc1NC(=O)Nc1ccc(CN2CCN(C)CC2)c(C(F)(F)F)c1` [Ie-29], greater than 1500 nM; with `Cc1cc(Oc2ccnc3[nH]c(Cl)c(Cl)c23)ccc1NC(=O)Nc1ccc(CN2CCN(C)CC2)c(C(F)(F)F)c1` [Ie-30, 1-(4-((2,3-dichloro-1H-pyrrolo[2,3-b]pyridin-4-yl)oxy)-2-methylphenyl)-3-(4-((4-methylpiperazin-1-yl)methyl)-3-(trifluoromethyl)phenyl)urea], greater than 1500 nM. For `O=C(Nc1ccc(CN2CCC2)c(C(F)(F)F)c1)Nc1ccc(Oc2ccnc3[nH]cc(Cl)c23)cc1F` [Ie-31, 1-(4-(azetidin-1-ylmethyl)-3-(trifluoromethyl)phenyl)-3-(4-((3-chloro-1H-pyrrolo[2,3-b]pyridin-4-yl)oxy)-2-fluorophenyl)urea], the IC50 was greater than 1500 nM. For the compound `O=C(Nc1ccc(CN2CC(F)(F)C2)c(C(F)(F)F)c1)Nc1ccc(Oc2ccnc3[nH]cc(Cl)c23)cc1F` [Ie-32, 1-(4-((3-chloro-1H-pyrrolo[2,3-b]pyridin-4-yl)oxy)-2-fluorophenyl)-3-(4-((3,3-difluoroazetidin-1-yl)methyl)-3-(trifluoromethyl)phenyl)urea], the IC50 was greater than 1500 nM. On to `CN1C[C@H]2CC[C@@H](C1)N2Cc1ccc(NC(=O)Nc2ccc(Oc3ccnc4[nH]cc(Cl)c34)cc2F)cc1C(F)(F)F` [Ie-33, 1-(4-((3-chloro-1H-pyrrolo[2,3-b]pyridin-4-yl)oxy)-2-fluorophenyl)-3-(4-(((1R,5S)-3-methyl-3,8-diazabicyclo[3.2.1]octan-8-yl)methyl)-3-(trifluoromethyl)phenyl)urea], for which the IC50 is greater than 1500 nM. On the same count and under the same terms, with `CN1CC2CCC1CN2Cc1ccc(NC(=O)Nc2ccc(Oc3ccnc4[nH]cc(Cl)c34)cc2F)cc1C(F)(F)F` (centres unmarked) [Ie-35, 1-(4-((3-chloro-1H-pyrrolo[2,3-b]pyridin-4-yl)oxy)-2-fluorophenyl)-3-(4-((5-methyl-2,5-diazabicyclo[2.2.2]octan-2-yl)methyl)-3-(trifluoromethyl)phenyl)urea] the figure was greater than 1500 nM; with `COc1cc(CN2CCN(C)CC2)ccc1NC(=O)Nc1ccc(Oc2ccnc3[nH]cc(Cl)c23)cc1F` [Ie-40, 1-(4-((3-chloro-1H-pyrrolo[2,3-b]pyridin-4-yl)oxy)-2-fluorophenyl)-3-(2-methoxy-4-((4-methylpiperazin-1-yl)methyl)phenyl)urea], greater than 1500 nM. For the compound `O=C(Nc1ccc(CN2CCN(CCO)CC2)c(C(F)(F)F)c1)Nc1ccc(Oc2ccnc3[nH]cc(Cl)c23)cc1F` [Ie-41, 1-(4-((3-chloro-1H-pyrrolo[2,3-b]pyridin-4-yl)oxy)-2-fluorophenyl)-3-(4-((4-(2-hydroxyethyl)piperazin-1-yl)methyl)-3-(trifluoromethyl)phenyl)urea], the IC50 is greater than 1500 nM. The same measure, in the same setting: to `COCCN1CCN(Cc2ccc(NC(=O)Nc3ccc(Oc4ccnc5[nH]cc(Cl)c45)cc3F)cc2C(F)(F)F)CC1` [Ie-42, 1-(4-((3-chloro-1H-pyrrolo[2,3-b]pyridin-4-yl)oxy)-2-fluorophenyl)-3-(4-((4-(2-methoxyethyl)piperazin-1-yl)methyl)-3-(trifluoromethyl)phenyl)urea] belongs greater than 1500 nM; to `COc1cc(NC(=O)Nc2ccc(Oc3ccnc4[nH]cc(Cl)c34)cc2F)ccc1CN1CCN(C)CC1` [Ie-43, 1-(4-((3-chloro-1H-pyrrolo[2,3-b]pyridin-4-yl)oxy)-2-fluorophenyl)-3-(3-methoxy-4-((4-methylpiperazin-1-yl)methyl)phenyl)urea], greater than 1500 nM.

The same assay, now with this note: comparative compounds of Structure (II).
On to `CC(C)n1nc(-c2ccc3c(c2F)CCN3C(=O)Cc2cc(C(F)(F)F)ccc2F)c2c(N)ncnc21` [II-11, 1-(5-(4-amino-1-isopropyl-1H-pyrazolo[3,4-d]pyrimidin-3-yl)-4-fluoroindolin-l-yl)-2-(2-fluoro-5-(trifluoromethyl)phenyl)ethan-1-one], for which the IC50 is less than 150 nM. Same read-out and setting: to `Nc1ncnc2c1c(-c1ccc3c(c1F)CCN3C(=O)Cc1cc(C(F)(F)F)ccc1F)nn2C1COC1` [II-12, 1-(5-(4-amino-1-(oxetan-3-yl)-1H-pyrazolo[3,4-d]pyrimidin-3-yl)-4-fluoroindolin-1-yl)-2-(2-fluoro-5-(trifluoromethyl)phenyl)ethan-1-one] belongs less than 150 nM; to `Nc1ncnc2c1c(-c1ccc3c(c1F)CCN3C(=O)Cc1ccc(F)c(C(F)(F)F)c1)nn2C1CCOCC1` [II-14, 1-(5-(4-amino-1-(tetrahydro-2H-pyran-4-yl)-1H-pyrazolo[3,4-d]pyrimidin-3-yl)-4-fluoroindolin-1-yl)-2-(4-fluoro-3-(trifluromethyl)phenyl)ethan-1-one], less than 150 nM; to `Nc1ncnc2c1c(-c1ccc3c(c1Cl)CCN3C(=O)Cc1cc(C(F)(F)F)ccc1F)cn2C1CC1` [II-16, 1-(5-(4-amino-7-cyclopropyl-7H-pyrrolo[2,3-d]pyrimidin-5-yl)-4-chloroindolin-1-yl)-2-(2-fluoro-5-(trifluoromethyl)phenyl)ehtan-1-one], less than 150 nM.

In the next assay the test system is IL-1β release. Nature of the assay: IL-1β release assay (PMA-differentiated THP-1 cells, LPS + nigericin, cleaved IL-1β by JESS). The class given is cell-based. The note with it: Homo sapiens, THP-1; comparative compounds of Structure (II); read-out: IL-1β release IC50. As to the method: (§1) Approximately 1.5 million THP-1 cells were plated in each well of a 6-well TC plate and incubated with 40 nM PMA in RPMI (10% FBS, 1% Penstrep) for 24 hours. The media was then removed and cells were rested in RPMI (10% FBS, 1% Penstrep) for 24 hours after which time the media was removed and cells were pre-treated for 2 hours with various concentrations of compounds of interest (typically serial 3-fold dilution in RPMI +5% FBS, concentrations ranging from 1 μM to 0.5 nM) in RPMI (5% FBS). The media was again removed and cells were incubated with 250 ng/mL LPS and compounds of interest (concentrations as above) in RMPI (5% FBS) for 2 hours. The media was removed for a last time and cells were incubated with 20 μM nigericin and compounds of interest (concentrations as above) in Opti-MEM for 30 minutes. Cell media was then collected and the amount of cleaved IL-1β was determined using a JESS instrument (Protein Simple) and standard protocols. Cleaved 1-PD antibody was obtained from Cell Signaling (catalogue #83186S) and was used at 1:20 dilution in antibody diluent 2. Protein Simple 1× anti-Rabbit HRP secondary antibody was used along with Protein Simple luminol and peroxide for chemiluminescent detection. Primary antibody incubation time was increased from 30 minutes to 60 minutes.
as §1, with “RPMI+5%” for “RPMI +5%”, “Il-1β” for “1-PD”
For the compound `CC(C)n1nc(-c2ccc3c(c2F)CCN3C(=O)Cc2cc(C(F)(F)F)ccc2F)c2c(N)ncnc21` [II-11, 1-(5-(4-amino-1-isopropyl-1H-pyrazolo[3,4-d]pyrimidin-3-yl)-4-fluoroindolin-l-yl)-2-(2-fluoro-5-(trifluoromethyl)phenyl)ethan-1-one], the IC50 is greater than 1000 nM. Regarding `Nc1ncnc2c1c(-c1ccc3c(c1F)CCN3C(=O)Cc1cc(C(F)(F)F)ccc1F)nn2C1COC1` [II-12, 1-(5-(4-amino-1-(oxetan-3-yl)-1H-pyrazolo[3,4-d]pyrimidin-3-yl)-4-fluoroindolin-1-yl)-2-(2-fluoro-5-(trifluoromethyl)phenyl)ethan-1-one], the IC50 is greater than 1000 nM. In the case of `Nc1ncnc2c1c(-c1ccc3c(c1F)CCN3C(=O)Cc1ccc(F)c(C(F)(F)F)c1)nn2C1CCOCC1` [II-14, 1-(5-(4-amino-1-(tetrahydro-2H-pyran-4-yl)-1H-pyrazolo[3,4-d]pyrimidin-3-yl)-4-fluoroindolin-1-yl)-2-(4-fluoro-3-(trifluromethyl)phenyl)ethan-1-one], the IC50 is greater than 1000 nM.

As for `Nc1ncnc2c1c(-c1ccc3c(c1Cl)CCN3C(=O)Cc1cc(C(F)(F)F)ccc1F)cn2C1CC1` [II-16, 1-(5-(4-amino-7-cyclopropyl-7H-pyrrolo[2,3-d]pyrimidin-5-yl)-4-chloroindolin-1-yl)-2-(2-fluoro-5-(trifluoromethyl)phenyl)ehtan-1-one], the 50% inhibitory concentration (IC50) was greater than 1000 nM.
